A word on the IC50: it is the concentration that inhibits the measured activity by half. Low readings indicate higher potency, high ones lower potency.

From ChEMBL document CHEMBL3600300, “Cytotoxic triterpene saponins from Cercodemas anceps” (Bioorg Med Chem Lett, 2015) come the findings set out here.

What all share (type): functional, cell-based
The subject of test [1] is LNCaP. The test can be described thus: Cytotoxicity against human LNCAP cells after 48 hrs by SRB assay. (In general: The SRB assay estimates cell density from bound dye.)
The test system of test [2] is MCF7. The test can be described thus: Cytotoxicity against human MCF7 cells after 48 hrs by SRB assay. To be noted: MCF7, 48 h.
Test [3] concerns KB. The test can be described thus: Cytotoxicity against human KB cells after 48 hrs by SRB assay.
In test [4] the test system is HepG2. The test can be described thus: Cytotoxicity against human HepG2 cells after 48 hrs by SRB assay. To be noted: HepG2, 48 h.
The test system of test [5] is SK-MEL-2. The test can be described thus: Cytotoxicity against human SK-MEL-2 cells after 48 hrs by SRB assay. To be noted: SK-MEL-2, 48 h.

Regarding `CO[C@@H]1[C@@H](O)[C@H](O[C@@H]2[C@@H](O)[C@H](O[C@H]3[C@H](O)[C@@H](O[C@@H]4OC[C@@H](O)[C@H](O)[C@H]4O)[C@H](O[C@H]4[C@H](O[C@H]5CC[C@]6(C)C7=CC[C@]89C(=O)O[C@@](C)(CCCC(C)C)[C@H]8C(=O)C[C@@]9(C)[C@@H]7CC[C@H]6C5(C)C)OC[C@@H](OS(=O)(=O)O)[C@@H]4O)O[C@@H]3C)O[C@H](COS(=O)(=O)O)[C@H]2O)O[C@H](CO)[C@H]1O`, the IC50 in test [1] worked out at 170 nM; in test [2], 130 nM; in test [3] it was 30 nM; in test [4], 70 nM; in test [5] it was 110 nM.

As to `C=C(C)CCC[C@]1(C)OC(=O)[C@]23CC=C4[C@@H](CC[C@H]5C(C)(C)[C@@H](O[C@@H]6OC[C@@H](OS(=O)(=O)O)[C@H](O)[C@H]6O[C@@H]6O[C@H](C)[C@@H](O[C@@H]7O[C@H](COS(=O)(=O)O)[C@@H](O)[C@H](O[C@@H]8O[C@H](CO)[C@@H](O)[C@H](OC)[C@H]8O)[C@H]7O)[C@H](O)[C@H]6O[C@@H]6OC[C@@H](O)[C@H](O)[C@H]6O)CC[C@]45C)[C@]2(C)CC(=O)[C@@H]31`, the IC50 in test [1] was found to be 230 nM; in test [2], 200 nM; in test [3], 40 nM; in test [4] it was 70 nM; in test [5], 240 nM.

Take `CC(C)CCC[C@]1(C)OC(=O)[C@]23CC=C4[C@@H](CC[C@H]5C(C)(C)[C@@H](O[C@@H]6OC[C@@H](OS(=O)(=O)O)[C@H](O)[C@H]6O[C@H]6O[C@H](C)[C@H](O[C@@H]7O[C@H](COS(=O)(=O)O)[C@@H](O)[C@H](O)[C@H]7O)[C@H](O)[C@H]6O)CC[C@]45C)[C@]2(C)CC(=O)[C@@H]31`: the IC50 turned out to be 1190 nM in test [1]; 560 nM in test [2]; 250 nM in test [3]; 970 nM in test [4]; 1470 nM in test [5].

For `C=C(C)CCC[C@]1(C)OC(=O)[C@]23CC=C4[C@@H](CC[C@H]5C(C)(C)[C@@H](O[C@@H]6OC[C@@H](OS(=O)(=O)O)[C@H](O)[C@H]6O[C@H]6O[C@H](C)[C@H](O[C@@H]7O[C@H](COS(=O)(=O)O)[C@@H](O)[C@H](O)[C@H]7O)[C@H](O)[C@H]6O)CC[C@]45C)[C@]2(C)CC(=O)[C@@H]31`, the IC50 in test [1] worked out at 1920 nM; in test [2], 1030 nM; in test [3], 320 nM; in test [4] it was 4690 nM; in test [5] it was 1250 nM.

In the case of `CC(C)CCC[C@]1(C)OC(=O)[C@]23CC=C4[C@@H](CC[C@H]5C(C)(C)[C@@H](O[C@@H]6OC[C@@H](OS(=O)(=O)O)[C@H](O)[C@H]6O[C@H]6O[C@H](C)[C@@H](O)[C@H](O)[C@H]6O)CC[C@]45C)[C@]2(C)CC(=O)[C@@H]31`, the IC50 was 2110 nM in test [1]; 1090 nM in test [2]; 480 nM in test [3]; 2050 nM in test [4]; 4090 nM in test [5].

Take `C=C(C)CCC[C@]1(C)OC(=O)[C@]23CC=C4[C@@H](CC[C@H]5C(C)(C)[C@@H](O[C@@H]6OC[C@@H](OS(=O)(=O)O)[C@H](O)[C@H]6O[C@H]6O[C@H](C)[C@@H](O)[C@H](O)[C@H]6O)CC[C@]45C)[C@]2(C)CC(=O)[C@@H]31`: the IC50 in test [1] turned out to be 3300 nM; in test [2] it was 1330 nM; in test [3], 1370 nM; in test [4], 6080 nM; in test [5], 7360 nM.

`CO[C@@H]1[C@@H](O)[C@H](O[C@@H]2[C@@H](O)[C@H](O[C@H]3[C@H](O)[C@@H](O)[C@H](O[C@H]4[C@H](O[C@H]5CC[C@]6(C)[C@H]7CC[C@]89C(=O)O[C@@](C)(CCC=C(C)C)[C@H]8[C@@H](OC(C)=O)C[C@@]9(C)C7=CC[C@H]6C5(C)C)OC[C@@H](OS(=O)(=O)O)[C@@H]4O)O[C@@H]3C)OC[C@H]2O)O[C@H](CO)[C@H]1O`: the IC50 in test [1] was found to be 1190 nM; in test [2], 370 nM; in test [3] it was 110 nM; in test [4], 1160 nM; in test [5], 850 nM.

With `Cc1c2ccncc2c(C)c2c1[nH]c1ccccc12` [ELLIPTECINE], the IC50 in test [1] is 1990 nM; in test [2] it was 1950 nM; in test [3], 2070 nM; in test [4] it was 1710 nM; in test [5], 2150 nM.
